Active and inactive are the calls of the source. The calls are words filed in the database; no cut-off is given here.
Tests used:
[1] = test system: BMMC; experiment: Anti-osteoclastogenesis activity in M-CSF/RANKL-induced C57BL/6J mouse BMMC cells assessed as inhibition of FCGR3 gene expression by RNA sequencing analysis; assay type: functional, cell-based
[2] = test system: BMMC; experiment: Anti-osteoclastogenesis activity in M-CSF/RANKL-induced C57BL/6J mouse BMMC cells assessed as reduction in c-Fos protein expression measured after 3 days by Western blot analysis; assay type: functional, cell-based; conditions: dose 0.05-5 µM, time 3.0 day
[3] = test system: Mus musculus; experiment: Anti-osteoporosis activity in ovariectomized C57BL/6 mouse assessed as prevention of bone loss by measuring recovery of trabecular thickness in femur at 0.2 to 0.6 mg/kg, ip administered every day for 6 weeks by 3D-imaging analysis; assay type: functional, organism-based; conditions: dose 0.2-0.6 mg/kg
[4] = test system: BMMC; experiment: Anti-osteoclastogenesis activity in M-CSF/RANKL-induced C57BL/6J mouse BMMC cells assessed as inhibition of MMP9 gene expression by RNA sequencing analysis; assay type: functional, cell-based
[5] = Cmax in ICR mouse at 1 mg/kg, iv measured upto 24 hrs by LC-MS/MS analysis; assay type: ADME, organism-based; conditions: in vivo
[6] = test system: BMMC; experiment: Anti-osteoclastogenesis activity in M-CSF/RANKL-induced C57BL/6J mouse BMMC cells assessed as inhibition of Acp5 gene expression by RNA sequencing analysis; assay type: functional, cell-based
[7] = test system: BMMC; experiment: Anti-osteoclastogenesis activity in M-CSF/RANKL-induced C57BL/6J mouse BMMC cells assessed as inhibition of CALCR gene expression by RNA sequencing analysis; assay type: functional, cell-based
[8] = AUC (0 to t) in ICR mouse at 1 mg/kg, iv measured upto 24 hrs by LC-MS/MS analysis; assay type: ADME, organism-based; conditions: in vivo
[9] = test system: BMMC; experiment: Anti-osteoclastogenesis activity in M-CSF/RANKL-induced C57BL/6J mouse BMMC cells assessed as reduction in MMP9 mRNA expression at 0.05 to 5 uM measured after 2 days by RT-qPCR analysis; assay type: functional, cell-based; conditions: dose 0.05-5 µM, time 2.0 day
[10] = test system: Mus musculus; experiment: Anti-osteoporosis activity in ovariectomized C57BL/6 mouse assessed as prevention of bone loss by measuring recovery of BV/TV in femur at 0.6 mg/kg, ip administered every day for 6 weeks by 3D-imaging analysis relative to control; assay type: functional
[11] = test system: BMMC; experiment: Anti-osteoclastogenesis activity in M-CSF/RANKL-induced C57BL/6J mouse BMMC cells assessed as reduction in size and amount of osteoclasts by measuring reduction in TRAP-positive multinucleated cells incubated for 7 days by TRAP staining based analysis; assay type: functional, cell-based; conditions: dose 0.05-0.5 µM, time 7.0 day
[12] = test system: BMMC; experiment: Anti-osteoclastogenesis activity in M-CSF/RANKL-induced C57BL/6J mouse BMMC cells assessed as inhibition of CTSK gene expression by RNA sequencing analysis; assay type: functional, cell-based
[13] = test system: BMMC; experiment: Anti-osteoclastogenesis activity in M-CSF/RANKL-induced C57BL/6J mouse BMMC cells assessed as reduction in osteoclast generation at 0.05 uM incubated for 7 days by TRAP staining based analysis relative to control; assay type: functional; parameters: scale not given: the % may be the effect or the level left; conditions: time 7 day
[14] = Tmax in ICR mouse at 10 mg/kg, po measured upto 24 hrs by LC-MS/MS analysis; assay type: ADME, organism-based; conditions: in vivo
[15] = AUC (0 to t) in ICR mouse at 10 mg/kg, po measured upto 24 hrs by LC-MS/MS analysis; assay type: ADME, organism-based; conditions: in vivo
[16] = test system: BMMC; experiment: Anti-osteoclastogenesis activity in M-CSF/RANKL-induced C57BL/6J mouse BMMC cells assessed as inhibition of Traf6 gene expression by RNA sequencing analysis; assay type: functional, cell-based
[17] = test system: BMMC; experiment: Anti-osteoclastogenesis activity in M-CSF/RANKL-induced C57BL/6J mouse BMMC cells assessed as inhibition of osteoclast differentiation at early stage at 0.1 uM measured after 1 to 3 days by TRAP staining based analysis relative to control; assay type: functional; conditions: time 1-3 day
[18] = Total plasma clearance in ICR mouse at 1 mg/kg, iv measured upto 24 hrs by LC-MS/MS analysis; assay type: ADME, organism-based
[19] = AUC (0 to infinity) in ICR mouse at 1 mg/kg, iv measured upto 24 hrs by LC-MS/MS analysis; assay type: ADME, organism-based; conditions: in vivo
[20] = test system: BMMC; experiment: Anti-osteoclastogenesis activity in M-CSF/RANKL-induced C57BL/6J mouse BMMC cells assessed as reduction in size and amount of osteoclasts by measuring reduction in F-actin ring formation incubated for 7 days by rhodamine-labeled phalloidin staining based fluorescence microscopic analysis; assay type: functional, cell-based; conditions: dose 0.05-0.5 µM, time 7.0 day
[21] = test system: BMMC; experiment: Anti-osteoclastogenesis activity in M-CSF/RANKL-induced C57BL/6J mouse BMMC cells assessed as inhibition of osteoclast differentiation at late stage at 0.1 uM measured after 5 to 7 days by TRAP staining based analysis relative to control; assay type: functional; conditions: time 5-7 day
[22] = test system: BMMC; experiment: Anti-osteoclastogenesis activity in M-CSF/RANKL-induced C57BL/6J mouse BMMC cells assessed as reduction in osteoclast generation at 0.5 uM incubated for 7 days by TRAP staining based analysis relative to control; assay type: functional; parameters: scale not given: the % may be the effect or the level left; conditions: time 7 day
[23] = test system: BMMC; experiment: Anti-osteoclastogenesis activity in M-CSF/RANKL-induced C57BL/6J mouse BMMC cells assessed as inhibition of Oscar gene expression by RNA sequencing analysis; assay type: functional, cell-based
[24] = test system: BMMC; experiment: Anti-osteoclastogenesis activity in M-CSF/RANKL-induced C57BL/6J mouse BMMC cells assessed as reduction in TRAP protein expression measured after 3 days by Western blot analysis; assay type: functional, cell-based; conditions: dose 0.05-5 µM, time 3.0 day
[25] = test system: BMMC; experiment: Anti-osteoclastogenesis activity in M-CSF/RANKL-induced C57BL/6J mouse BMMC cells assessed as reduction in TRAF6 mRNA expression at 0.05 to 5 uM measured after 2 days by RT-qPCR analysis; assay type: functional, cell-based; conditions: dose 0.05-5 µM, time 2.0 day
[26] = Terminal elimination half life in ICR mouse at 1 mg/kg, iv measured upto 24 hrs by LC-MS/MS analysis; assay type: ADME, organism-based; conditions: in vivo, read-out: beta t1/2 (converted)
[27] = test system: BMMC; experiment: Potency index, ratio of bisnoralcohol IC50 to test compound IC50 for anti-osteoclastogenesis activity in M-CSF/RANKL-induced C57BL/6J mouse BMMC cells assessed as inhibition of osteoclast differentiation incubated for 7 days by TRAP staining based analysis; assay type: functional; conditions: time 7 day
[28] = Apparent volume of distribution in ICR mouse at 1 mg/kg, iv measured upto 24 hrs by LC-MS/MS analysis; assay type: ADME, organism-based; conditions: in vivo, read-out: Vz
[29] = test system: BMMC; experiment: Anti-osteoclastogenesis activity in M-CSF/RANKL-induced C57BL/6J mouse BMMC cells assessed as inhibition of FOS gene expression by RNA sequencing analysis; assay type: functional, cell-based
[30] = test system: BMMC; experiment: Anti-osteoclastogenesis activity in M-CSF/RANKL-induced C57BL/6J mouse BMMC cells assessed as reduction in MMP9 protein expression measured after 3 days by Western blot analysis; assay type: functional, cell-based; conditions: dose 0.05-5 µM, time 3.0 day
[31] = test system: BMMC; experiment: Anti-osteoclastogenesis activity in M-CSF/RANKL-induced C57BL/6J mouse BMMC cells assessed as inhibition of osteoclast differentiation at 0.1 uM incubated for 7 days by TRAP staining based analysis relative to control; assay type: functional; conditions: 168 h, time 7 day
[32] = Toxicity in ovariectomized female C57BL/6 mouse assessed as reduction in body weight at 0.2 to 0.6 mg/kg, ip administered every day for 6 weeks; assay type: organism-based; conditions: in vivo, 1008 h, dose 0.2-0.6 mg/kg

Cmax [5]: 484 ng/mL
AUC(0-t) at 24 h [8]: 509 ng·h/mL
Tmax [14]: 0.67 h
AUC(0-t) at 24 h [15]: 654 ng·h/mL
clearance [18]: 31.7 mL/min/kg
AUC(0-inf) [19]: 526 ng·h/mL
half-life [26]: 1.76 h
Vd [28]: 4.85 L/kg
Compound: CCNC(=O)[C@@H](C)[C@H]1CC[C@H]2[C@@H]3CC=C4C(C)(C)c5nnsc5C[C@]4(C)[C@H]3CC[C@]12C
Activity [1]: Active
Activity [2]: Dose-Dependent Effect
Activity [3]: inactive
Activity [4]: Active
Activity [6]: Active
Activity [7]: Active
Activity [9]: Active
Activity [10]: 57.15%
Activity [11]: Dose-Dependent Effect
Activity [12]: Active
Activity [13]: 50%
Activity [16]: Active
inhibition at 0.1 µM [17]: 73.1%
Activity [20]: Dose-Dependent Effect
inhibition at 0.1 µM [21]: 10.9%
Activity [22]: ~100%
Activity [23]: Active
Activity [24]: Dose-Dependent Effect
Activity [25]: Active
Ratio IC50 [27]: 45
Activity [29]: Active
Activity [30]: Dose-Dependent Effect
inhibition at 0.1 µM [31]: 82.8%
Activity [32]: Non-Toxic

— ChEMBL document CHEMBL5506037, “Synthesis of Heterocyclic Ring-Fused Bisnoralcohol Derivatives as Novel Small-Molecule Antiosteoporosis Agents” (J Med Chem, 2024)
